Experimental data taken from ChEMBL document CHEMBL1177794, “Broad spectrum alkynyl inhibitors of T315I Bcr-Abl” (Bioorg Med Chem Lett, 2010).

Legend:
[1] = test system: Tyrosine-protein kinase ABL1 (Homo sapiens), P00519 [Q252H]; experiment: Inhibition of non phosphorylated ABL1 Q252H mutant at 10 uM; details: values are per cent of control
[2] = target: Activin receptor type-1 (Homo sapiens) (UniProt Q04771); experiment: Inhibition of ACVR1 at 10 uM; details: values are per cent of control
[3] = target: Atypical kinase COQ8A, mitochondrial (Homo sapiens) (UniProt Q8NI60); experiment: Inhibition of ADCK3 at 10 uM; details: values are per cent of control
[4] = target: 5'-AMP-activated protein kinase catalytic subunit alpha-2 (Homo sapiens) (UniProt P54646); experiment: Inhibition of AMPK-alpha2 at 10 uM; details: values are per cent of control
[5] = target: Calcium/calmodulin-dependent protein kinase type II subunit beta (Homo sapiens) (UniProt Q13554); experiment: Inhibition of CAMK2B at 10 uM; details: values are per cent of control
[6] = target: Ephrin type-A receptor 6 (Homo sapiens) (UniProt Q9UF33); experiment: Inhibition of EPHA6 at 10 uM; details: values are per cent of control
Ephrin type-A receptor 6 (Homo sapiens), sequence (Q9UF33 whole entry): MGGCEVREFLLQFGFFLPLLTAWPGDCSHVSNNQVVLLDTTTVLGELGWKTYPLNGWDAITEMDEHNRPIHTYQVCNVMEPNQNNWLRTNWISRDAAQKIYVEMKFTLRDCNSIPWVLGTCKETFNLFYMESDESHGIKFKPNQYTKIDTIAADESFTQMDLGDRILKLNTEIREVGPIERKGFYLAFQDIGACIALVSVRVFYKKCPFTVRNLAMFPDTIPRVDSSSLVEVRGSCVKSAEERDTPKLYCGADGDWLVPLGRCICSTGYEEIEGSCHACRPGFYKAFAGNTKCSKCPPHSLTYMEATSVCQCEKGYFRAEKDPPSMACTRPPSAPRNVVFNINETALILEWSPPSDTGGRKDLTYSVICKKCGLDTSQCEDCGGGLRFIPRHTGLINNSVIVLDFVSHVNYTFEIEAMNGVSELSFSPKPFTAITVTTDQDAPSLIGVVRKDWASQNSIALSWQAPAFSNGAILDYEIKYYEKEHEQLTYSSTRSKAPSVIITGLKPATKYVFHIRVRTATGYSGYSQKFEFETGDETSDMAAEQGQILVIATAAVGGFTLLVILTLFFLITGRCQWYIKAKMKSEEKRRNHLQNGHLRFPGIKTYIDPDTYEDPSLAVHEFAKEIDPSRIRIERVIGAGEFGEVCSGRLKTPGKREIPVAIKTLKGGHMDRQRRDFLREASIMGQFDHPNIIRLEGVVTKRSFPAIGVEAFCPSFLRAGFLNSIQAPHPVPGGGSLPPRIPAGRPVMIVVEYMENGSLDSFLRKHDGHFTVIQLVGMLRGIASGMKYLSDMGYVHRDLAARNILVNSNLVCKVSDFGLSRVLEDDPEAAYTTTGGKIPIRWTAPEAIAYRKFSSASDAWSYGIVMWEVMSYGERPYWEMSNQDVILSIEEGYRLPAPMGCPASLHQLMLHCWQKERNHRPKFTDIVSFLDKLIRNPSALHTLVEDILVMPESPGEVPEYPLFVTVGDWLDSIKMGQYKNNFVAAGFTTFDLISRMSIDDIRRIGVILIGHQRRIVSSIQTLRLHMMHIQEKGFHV

[7] = target: Mitogen-activated protein kinase kinase kinase 4 (Homo sapiens) (UniProt Q9Y6R4); experiment: Inhibition of MAP3K4 at 10 uM; details: values are per cent of control
[8] = target: Serine/threonine-protein kinase MARK1 (Homo sapiens) (UniProt Q9P0L2); experiment: Inhibition of MARK1 at 10 uM; details: values are per cent of control
Serine/threonine-protein kinase MARK1 (Homo sapiens), sequence (Q9P0L2 whole entry, looked up): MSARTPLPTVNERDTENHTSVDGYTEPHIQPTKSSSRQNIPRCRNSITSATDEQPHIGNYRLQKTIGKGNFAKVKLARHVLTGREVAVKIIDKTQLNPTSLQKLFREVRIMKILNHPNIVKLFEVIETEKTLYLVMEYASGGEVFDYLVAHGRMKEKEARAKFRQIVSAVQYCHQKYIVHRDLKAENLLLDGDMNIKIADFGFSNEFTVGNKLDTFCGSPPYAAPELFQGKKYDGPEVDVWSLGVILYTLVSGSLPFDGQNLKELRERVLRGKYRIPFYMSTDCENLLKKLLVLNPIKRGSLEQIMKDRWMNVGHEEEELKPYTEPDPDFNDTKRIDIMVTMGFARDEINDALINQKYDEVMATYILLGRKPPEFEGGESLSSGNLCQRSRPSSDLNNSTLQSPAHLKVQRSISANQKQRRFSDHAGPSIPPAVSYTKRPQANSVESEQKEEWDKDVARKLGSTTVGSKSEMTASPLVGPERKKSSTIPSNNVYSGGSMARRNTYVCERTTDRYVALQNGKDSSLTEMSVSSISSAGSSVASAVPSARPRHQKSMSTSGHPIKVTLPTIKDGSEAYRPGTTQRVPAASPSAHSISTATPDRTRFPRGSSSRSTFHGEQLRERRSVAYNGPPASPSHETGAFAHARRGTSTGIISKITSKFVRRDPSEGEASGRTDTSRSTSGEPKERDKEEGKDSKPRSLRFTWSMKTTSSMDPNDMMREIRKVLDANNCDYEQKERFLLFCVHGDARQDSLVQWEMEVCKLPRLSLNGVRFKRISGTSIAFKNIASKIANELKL

[9] = target: Non-receptor tyrosine-protein kinase TNK1 (Homo sapiens) (UniProt Q13470); experiment: Inhibition of TNK1 at 10 uM; details: values are per cent of control
[10] = target: Dual specificity protein kinase TTK (Homo sapiens) (UniProt P33981); experiment: Inhibition of TTK at 10 uM; details: values are per cent of control
Dual specificity protein kinase TTK (Homo sapiens), sequence (P33981 whole entry): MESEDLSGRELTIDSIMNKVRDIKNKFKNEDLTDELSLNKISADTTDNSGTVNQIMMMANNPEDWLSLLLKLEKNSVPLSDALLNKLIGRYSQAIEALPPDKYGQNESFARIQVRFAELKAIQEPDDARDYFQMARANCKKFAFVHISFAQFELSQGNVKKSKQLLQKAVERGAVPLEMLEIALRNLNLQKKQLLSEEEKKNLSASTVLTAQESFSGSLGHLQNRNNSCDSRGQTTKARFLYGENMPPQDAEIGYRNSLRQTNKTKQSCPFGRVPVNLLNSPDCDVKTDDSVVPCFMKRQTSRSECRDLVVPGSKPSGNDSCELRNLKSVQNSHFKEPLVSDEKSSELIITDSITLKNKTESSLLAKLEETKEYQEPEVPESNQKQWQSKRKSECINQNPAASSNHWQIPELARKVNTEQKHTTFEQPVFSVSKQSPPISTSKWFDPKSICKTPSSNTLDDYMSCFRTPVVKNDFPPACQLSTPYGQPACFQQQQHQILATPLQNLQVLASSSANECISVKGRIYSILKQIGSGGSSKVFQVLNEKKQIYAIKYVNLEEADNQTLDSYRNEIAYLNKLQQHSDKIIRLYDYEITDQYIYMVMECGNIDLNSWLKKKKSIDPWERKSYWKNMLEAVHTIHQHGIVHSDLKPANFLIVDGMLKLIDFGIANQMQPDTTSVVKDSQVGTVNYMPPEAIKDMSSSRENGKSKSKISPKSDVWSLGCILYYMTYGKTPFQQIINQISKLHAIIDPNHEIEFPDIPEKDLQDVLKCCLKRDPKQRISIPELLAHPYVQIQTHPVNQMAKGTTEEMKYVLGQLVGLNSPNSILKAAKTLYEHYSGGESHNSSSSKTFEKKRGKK

[11] = target: Cyclin-dependent kinase 2 homolog (Plasmodium falciparum (isolate K1 / Thailand)) (UniProt Q07785); experiment: Inhibition of Plasmodium falciparum PFPK5 at 10 uM
Cyclin-dependent kinase 2 homolog (Plasmodium falciparum (isolate K1 / Thailand)), sequence (Q07785 whole entry): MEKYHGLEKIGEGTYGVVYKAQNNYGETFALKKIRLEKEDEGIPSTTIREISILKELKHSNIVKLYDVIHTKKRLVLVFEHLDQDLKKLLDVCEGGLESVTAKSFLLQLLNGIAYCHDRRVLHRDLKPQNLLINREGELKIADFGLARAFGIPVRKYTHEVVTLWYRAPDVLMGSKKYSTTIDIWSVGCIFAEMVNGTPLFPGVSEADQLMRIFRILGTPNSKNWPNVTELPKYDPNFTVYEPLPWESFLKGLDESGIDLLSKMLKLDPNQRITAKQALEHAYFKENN

[12] = target: Serine/threonine-protein kinase PLK1 (Homo sapiens) (UniProt P53350); experiment: Inhibition of PLK1 at 10 uM
[13] = target: Receptor-interacting serine/threonine-protein kinase 2 (Homo sapiens) (UniProt O43353); experiment: Inhibition of RIPK2 at 10 uM; details: values are per cent of control
[14] = target: NUAK family SNF1-like kinase 2 (Homo sapiens) (UniProt Q9H093); experiment: Inhibition of SNARK at 10 uM
NUAK family SNF1-like kinase 2 (Homo sapiens), sequence (Q9H093 whole entry): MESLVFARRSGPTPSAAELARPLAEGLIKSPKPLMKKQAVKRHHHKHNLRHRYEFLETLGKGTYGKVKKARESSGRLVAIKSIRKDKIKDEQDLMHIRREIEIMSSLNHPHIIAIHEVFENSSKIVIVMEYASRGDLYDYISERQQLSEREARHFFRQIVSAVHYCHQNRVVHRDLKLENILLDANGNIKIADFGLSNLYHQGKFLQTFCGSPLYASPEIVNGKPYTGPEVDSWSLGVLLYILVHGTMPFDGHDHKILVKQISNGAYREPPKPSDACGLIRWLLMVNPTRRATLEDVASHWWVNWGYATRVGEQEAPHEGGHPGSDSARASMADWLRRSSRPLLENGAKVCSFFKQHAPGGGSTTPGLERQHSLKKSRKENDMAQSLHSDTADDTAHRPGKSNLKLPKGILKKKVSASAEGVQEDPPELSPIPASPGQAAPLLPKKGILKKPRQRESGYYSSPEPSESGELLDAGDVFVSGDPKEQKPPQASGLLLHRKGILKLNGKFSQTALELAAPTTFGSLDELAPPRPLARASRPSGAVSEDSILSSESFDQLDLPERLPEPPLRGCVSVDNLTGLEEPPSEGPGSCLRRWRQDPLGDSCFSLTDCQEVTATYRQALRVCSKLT

[15] = target: Mitogen-activated protein kinase 1 (Homo sapiens) (UniProt P28482); experiment: Inhibition of ERK2 at 10 uM; values are per cent of control
Mitogen-activated protein kinase 1 (Homo sapiens), sequence (P28482 whole entry): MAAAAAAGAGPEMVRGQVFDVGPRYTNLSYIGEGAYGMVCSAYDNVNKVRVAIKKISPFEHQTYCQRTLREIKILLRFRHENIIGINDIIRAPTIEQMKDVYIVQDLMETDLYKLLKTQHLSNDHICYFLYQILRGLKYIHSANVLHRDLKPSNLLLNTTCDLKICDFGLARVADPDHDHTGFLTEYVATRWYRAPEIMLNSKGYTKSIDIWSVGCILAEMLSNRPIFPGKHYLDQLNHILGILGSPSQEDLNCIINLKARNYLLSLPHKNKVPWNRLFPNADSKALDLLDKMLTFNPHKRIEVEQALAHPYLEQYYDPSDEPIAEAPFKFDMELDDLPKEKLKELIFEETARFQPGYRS

[16] = target: Mitogen-activated protein kinase 8 (Homo sapiens) (UniProt P45983); experiment: Inhibition of JNK1 at 10 uM; values are per cent of control
[17] = target: Bone morphogenetic protein receptor type-2 (Homo sapiens) (UniProt Q13873); experiment: Inhibition of BMPR2 at 10 uM; values are per cent of control
Bone morphogenetic protein receptor type-2 (Homo sapiens), sequence (Q13873 whole entry): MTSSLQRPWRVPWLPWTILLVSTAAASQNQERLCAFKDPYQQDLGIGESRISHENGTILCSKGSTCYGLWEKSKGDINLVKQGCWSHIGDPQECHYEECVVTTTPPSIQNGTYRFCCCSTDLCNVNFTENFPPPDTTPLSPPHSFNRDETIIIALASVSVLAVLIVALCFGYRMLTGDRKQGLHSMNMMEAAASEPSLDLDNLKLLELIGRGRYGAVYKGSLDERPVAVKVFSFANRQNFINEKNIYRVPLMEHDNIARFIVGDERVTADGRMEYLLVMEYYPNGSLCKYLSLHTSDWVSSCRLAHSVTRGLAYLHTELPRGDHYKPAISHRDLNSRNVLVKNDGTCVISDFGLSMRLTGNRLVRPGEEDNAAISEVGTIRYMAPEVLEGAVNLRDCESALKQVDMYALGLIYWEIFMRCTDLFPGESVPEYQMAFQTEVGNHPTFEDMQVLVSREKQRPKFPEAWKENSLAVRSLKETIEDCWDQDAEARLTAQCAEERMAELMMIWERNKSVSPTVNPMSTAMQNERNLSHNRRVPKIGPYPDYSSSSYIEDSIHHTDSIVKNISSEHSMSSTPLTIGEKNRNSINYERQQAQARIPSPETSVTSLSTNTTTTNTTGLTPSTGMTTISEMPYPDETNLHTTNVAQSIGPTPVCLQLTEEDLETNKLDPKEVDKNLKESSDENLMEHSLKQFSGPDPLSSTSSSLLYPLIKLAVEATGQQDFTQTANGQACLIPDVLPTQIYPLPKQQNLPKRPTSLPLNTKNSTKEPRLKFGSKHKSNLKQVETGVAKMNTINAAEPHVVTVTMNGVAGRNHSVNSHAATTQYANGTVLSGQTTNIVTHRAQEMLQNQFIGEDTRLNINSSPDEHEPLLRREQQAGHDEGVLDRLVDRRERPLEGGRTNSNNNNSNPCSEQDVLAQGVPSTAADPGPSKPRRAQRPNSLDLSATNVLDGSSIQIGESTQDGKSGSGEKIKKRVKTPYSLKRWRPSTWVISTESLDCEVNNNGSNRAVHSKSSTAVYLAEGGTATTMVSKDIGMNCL

[18] = target: Ephrin type-B receptor 2 (Homo sapiens) (UniProt P29323); experiment: Inhibition of EPHB2 at 10 uM; values are per cent of control
[19] = target: Casein kinase I isoform gamma-3 (Homo sapiens) (UniProt Q9Y6M4); experiment: Inhibition of CSNK1G3 at 10 uM; values are per cent of control
[20] = target: Serine/threonine-protein kinase DCLK1 (Homo sapiens) (UniProt O15075); experiment: Inhibition of DCAMKL1 at 10 uM; values are per cent of control
[21] = target: Mitogen-activated protein kinase 13 (Homo sapiens) (UniProt O15264); experiment: Inhibition of p38delta at 10 uM; values are per cent of control
[22] = target: Epidermal growth factor receptor (Homo sapiens) (UniProt P04626+P00533+Q15303+P21860); experiment: Inhibition of EGFR S752-I759del mutant at 10 uM; values are per cent of control

SMILES	residual binding, % of control [1] [%]	residual binding, % of control [2] [%]	residual binding, % of control [3] [%]	residual binding, % of control [4] [%]	residual binding, % of control [5] [%]	residual binding, % of control [6] [%]	residual binding, % of control [7] [%]	residual binding, % of control [8] [%]	residual binding, % of control [9] [%]	residual binding, % of control [10] [%]	inhibition [11] [%]	inhibition [12] [%]	residual binding, % of control [13] [%]	inhibition [14] [%]	level, % of control [15] [%]	level, % of control [16] [%]	level, % of control [17] [%]	level, % of control [18] [%]	level, % of control [19] [%]	level, % of control [20] [%]	other results
CCN1CCN(Cc2ccc(NC(=O)c3ccc(C)c(C#Cc4cccnc4)c3)cc2C(F)(F)F)CC1	6.4	100	100	18	100	0	100	83	0	16	89	58	0.45	99	100	0.55	70	0.1	85	95	% of control [21]: 2.5%; level, % of control [22]: 0.9%
CCN1CCN(Cc2ccc(NC(=O)c3ccc(C)c(C#Cc4cnc5[nH]ccc5c4)c3)cc2C(F)(F)F)CC1	1.6	100	100	7.2	100	0.15	62	100	0.8	2	93	56	0.3	84	100	0.45	61	0.6	22	100	% of control [21]: 2.6%; level, % of control [22]: 0.75%
